Results from the NIST ThermoML archive (doi:10.1021/je400536f).

Legend:
[1] = 298.15 K, 100 kPa, Liquid; for viscosity: Concentric cylinders viscometry; for mass density: Vibrating tube method
[2] = mn = molality of the nth substance listed, in mol/kg; settings: 298.15 K, 100 kPa, Liquid, dip-type immersion conductivity cell

CNC=O [N-methylformamide]
[1]
Settings	mass density [kg/m3]	viscosity [mPa·s]
–	997.61	1.65

NC=O [formamide]
[1]
Settings	mass density [kg/m3]	viscosity [mPa·s]
–	1129.22	3.3

C[N+](=O)[O-] [nitromethane]
[1]
Settings	mass density [kg/m3]	viscosity [mPa·s]
–	1130.15	0.62

CCCC[N+](CCCC)(CCCC)CCCC.[O-][Cl+3]([O-])([O-])[O-] [tetrabutylammonium perchlorate] + CNC=O
[2]
Settings	molar conductivity [S·m2/mol]
m1 = 0.000795	0.00449
m1 = 0.001513	0.00423
m1 = 0.002025	0.00407
m1 = 0.002735	0.00389
m1 = 0.003295	0.00371
m1 = 0.003956	0.00358
m1 = 0.004802	0.00342
m1 = 0.005388	0.00333
m1 = 0.006053	0.00323
m1 = 0.006823	0.00309
m1 = 0.007832	0.00293
m1 = 0.008798	0.00279

CCCC[N+](CCCC)(CCCC)CCCC.[O-][Cl+3]([O-])([O-])[O-] [tetrabutylammonium perchlorate] + C[N+](=O)[O-]
[2]
Settings	molar conductivity [S·m2/mol]
m1 = 0.000864	0.0101
m1 = 0.001347	0.0098
m1 = 0.001806	0.00954
m1 = 0.00243	0.00927
m1 = 0.002992	0.00899
m1 = 0.003528	0.00879
m1 = 0.004186	0.00854
m1 = 0.004998	0.00831
m1 = 0.005715	0.00809
m1 = 0.006642	0.00777
m1 = 0.007639	0.00753
m1 = 0.008668	0.00731

CCCC[N+](CCCC)(CCCC)CCCC.[O-][Cl+3]([O-])([O-])[O-] [tetrabutylammonium perchlorate] + NC=O
[2]
Settings	molar conductivity [S·m2/mol]
m1 = 0.000807	0.00312
m1 = 0.001498	0.0029
m1 = 0.002061	0.00278
m1 = 0.002673	0.00264
m1 = 0.003238	0.00255
m1 = 0.003856	0.00244
m1 = 0.004665	0.00231
m1 = 0.005242	0.00224
m1 = 0.006209	0.00212
m1 = 0.007157	0.00202
m1 = 0.00801	0.00196
m1 = 0.008612	0.00189

CCCC[N+](CCCC)(CCCC)CCCC.F[B-](F)(F)F [tetrabutylammonium tetrafluoroborate] + CNC=O
[2]
Settings	molar conductivity [S·m2/mol]
m1 = 0.000795	0.00352
m1 = 0.001513	0.00331
m1 = 0.002025	0.00314
m1 = 0.002735	0.00299
m1 = 0.003295	0.00286
m1 = 0.003956	0.00275
m1 = 0.004802	0.00262
m1 = 0.005388	0.00253
m1 = 0.006053	0.0024
m1 = 0.007327	0.00223
m1 = 0.007832	0.00216
m1 = 0.008798	0.00204

CCCC[N+](CCCC)(CCCC)CCCC.F[B-](F)(F)F [tetrabutylammonium tetrafluoroborate] + C[N+](=O)[O-]
[2]
Settings	molar conductivity [S·m2/mol]
m1 = 0.000773	0.00833
m1 = 0.001303	0.00794
m1 = 0.001731	0.00765
m1 = 0.002372	0.00735
m1 = 0.002927	0.00709
m1 = 0.003576	0.00684
m1 = 0.004134	0.0066
m1 = 0.004914	0.0064
m1 = 0.005655	0.00617
m1 = 0.006577	0.00594
m1 = 0.007569	0.00568
m1 = 0.008556	0.00543

CCCC[N+](CCCC)(CCCC)CCCC.F[B-](F)(F)F [tetrabutylammonium tetrafluoroborate] + NC=O
[2]
Settings	molar conductivity [S·m2/mol]
m1 = 0.000829	0.00215
m1 = 0.001452	0.00203
m1 = 0.002025	0.00192
m1 = 0.002632	0.00183
m1 = 0.003181	0.00175
m1 = 0.003782	0.00167
m1 = 0.00457	0.00158
m1 = 0.005291	0.0015
m1 = 0.006131	0.00143
m1 = 0.007056	0.00134
m1 = 0.007921	0.00125
m1 = 0.008482	0.00119
